In article PMC5228037, “Discovery and Mechanistic Characterization of Selective Inhibitors of H2S-producing Enzyme: 3-Mercaptopyruvate Sulfurtransferase (3MST) Targeting Active-site Cysteine Persulfide” (Scientific Reports, 2017):

Biological target: T1, 3MST-overexpressing COS7 cells (Mus musculus, UniProt Q99J99)
T1 construct: expressed in transfected cells; host or cells: COS7 (transient)
T1 sequence (Q99J99 1-297): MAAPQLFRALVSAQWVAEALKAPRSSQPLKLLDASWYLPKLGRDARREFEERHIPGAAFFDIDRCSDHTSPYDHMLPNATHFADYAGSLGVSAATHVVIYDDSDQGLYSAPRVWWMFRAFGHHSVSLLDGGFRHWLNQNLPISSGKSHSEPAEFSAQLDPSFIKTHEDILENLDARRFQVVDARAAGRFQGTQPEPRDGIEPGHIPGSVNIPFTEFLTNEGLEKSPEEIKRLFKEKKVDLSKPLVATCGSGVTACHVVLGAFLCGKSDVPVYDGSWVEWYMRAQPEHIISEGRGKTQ
Experiment: Live-cell fluorescence imaging with SSP4 in 3MST-overexpressing COS7 cells
Assay type: cell-based
Method: Figure 2 Selectivity assessment of hit compounds for 3MST over other H2S/polysulfides-producing enzymes and rhodanese. (a) 3MST-Inhibitory activity of hit compounds at 10 and 100 μM in cell lysate of 3MST-expressing HEK293 cells. 100 μM 3MP and 100 μM DTT were added to the solution containing 0.1% DMSO as a cosolvent, and the mixture was incubated at 37 °C for 15 min. H2S production was measured by gas chromatography. All data are presented as the mean ± S.D. (100 μM: n = 3 or 4; 10 μM: n = 3). (b) Selectivity assessment of hit compounds at 100 μM towards CBS and CSE. Only DMSO was added to the control sample instead of DMSO solution containing hit compounds. H2S production was monitored by gas chromatography. All data are presented as the mean (n = 3). (c) Detection method for rhodanese activity (Sörbo method). (d) Selectivity assessment of hit compounds towards rhodanese. The results are mean ± S.D. (n = 4, three times). These values were determined based upon the absorbance of [Fe(SCN)3] at 460 nm (Sӧrbo method). […] (e) Fluorescence confocal microscopic images of live COS7 cells transfected with 3MST or an empty vector[9] as a control. […] F/F0 was calculated by dividing the fluorescence intensity of cells after addition of 500 μM 3MP (10 min) by that of cells before addition of 500 μM 3MP (Pre), then the mean F/F0 was determined from 5 cells. […]

Which “3MST activity in living cells (SSP4 sulfane sulfur fluorescence after 500 μM 3MP)” value (1 μM compound, 3MST-overexpressing COS7 cells) does the source give for `Cc1cc(=O)[nH]c(SCC(=O)c2cccc3ccccc23)n1` [compound 3] here?
Its value is “almost completely suppressed”.

And the Cell-membrane permeability (concluded from suppression of 3MST activity in live COS7 cells)?
Its Cell-membrane permeability is “cell-membrane permeable”.
